According to PMC10825133, “Repurposing proteasome inhibitors for improved treatment of triple-negative breast cancer” (Cell Death Discovery, 2024):
Where two headings read alike, the source gives them in different places.

What was measured:
HCC70 cells = experiment: Resazurin-based cell viability assay, monotherapy drug screen; parameters: species or system human; AUC: scale not given here; conditions: HCC70; for AUC: area under the dose response curve, 24 h; for GRmax: drug efficacy at highest tested dose (<0 cytotoxic, 0 cytostatic, >0 partial growth inhibition)
Summary of the method: (§1)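 Cells were seeded at the highest density (tested 1000-16000 cells/well) giving linear growth between days 1 and 3, keeping them in exponential phase over the ~52 h experiment. Viability was read after 4 h at 37 °C with 0.2 mg/ml resazurin added at 10% of medium volume; ex 560/em 615 nm.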

MCF-10A cells = experiment: as above; parameters: species or system human; AUC: scale not given here; conditions: for AUC: area under the dose response curve, 24 h
Summary of the method: as §1

MCF-7 cells = experiment: as above; parameters: species or system human; AUC: scale not given here; conditions: MCF-7; for IC50: growth rate inhibition concentration at GR(c) = 0.5, 24 h, read-out: GR50 (the source's name); for AUC: area under the dose response curve, 24 h; for GRmax: drug efficacy at highest tested dose (<0 cytotoxic, 0 cytostatic, >0 partial growth inhibition)
Summary of the method: as §1

BT-549 cells = experiment: as above; parameters: species or system human; AUC: scale not given here; conditions: BT-549; for AUC: area under the dose response curve, 24 h; for GRmax: drug efficacy at highest tested dose (<0 cytotoxic, 0 cytostatic, >0 partial growth inhibition)
Summary of the method: as §1

HCC1806 cells = experiment: as above; parameters: species or system human; AUC: scale not given here; conditions: HCC1806; for AUC: area under the dose response curve, 24 h; for GRmax: drug efficacy at highest tested dose (<0 cytotoxic, 0 cytostatic, >0 partial growth inhibition)
Summary of the method: as §1

MDA-MB-436 cells = experiment: as above; parameters: species or system human; AUC: scale not given here; conditions: MDA-MB-436; for AUC: area under the dose response curve, 24 h; for GRmax: drug efficacy at highest tested dose (<0 cytotoxic, 0 cytostatic, >0 partial growth inhibition)
Summary of the method: as §1

MDA-MB-468 cells = experiment: as above; parameters: species or system human; AUC: scale not given here; conditions: MDA-MB-468; for AUC: area under the dose response curve, 24 h
Summary of the method: as §1

CAL-148 cells = experiment: as above; parameters: species or system human; AUC: unit not given beside the values; conditions: CAL-148; for AUC: area under the dose response curve, 24 h; for GRmax: drug efficacy at highest tested dose (<0 cytotoxic, 0 cytostatic, >0 partial growth inhibition)
[1] = test system: eight TNBC cell lines (BT-549, CAL-148, HCC1806, HCC38, HCC70, MDA-MB-436, MDA-MB-453, MDA-MB-468); experiment: Monotherapy drug screen, mean across the TNBC cell lines
Summary of the method: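 Cells seeded at 4.0 × 10^3–7.5 × 10^3/well, grown 24 h, then drug-treated 24 h with matched solvent-vehicle controls per concentration; resazurin absorbance read-out, viability normalised to vehicle after background subtraction, t = 0 untreated cells for GR. AUC, IC50, GR50, GRmax via GRmetrics; combinations predicted by IDACombo, synergy scored with SynergyFinder.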

[2] = Homo sapiens, 24 h drug treatment, read-out: IC50
[3] = Homo sapiens, growth rate inhibition concentration at GR(c) = 0.5, 24 h, read-out: GR50 (the source's name)
[4] = 24 h drug treatment, read-out: IC50
[5] = growth rate inhibition concentration at GR(c) = 0.5, 24 h, read-out: GR50 (the source's name)
[6] = drug efficacy at highest tested dose (<0 cytotoxic, 0 cytostatic, >0 partial growth inhibition)

## CC(C)C[C@H](NC(=O)CNC(=O)c1cc(Cl)ccc1Cl)B(O)O [MLN 2238, MLN-2238]
HCC70 cells
  AUC: 0.78
  GRmax: −0.36
HCC70 cells; [2]
  IC50: 2700 nM
HCC70 cells; [3]
  IC50: 740 nM
MCF-10A cells; [2]
  IC50: 410 nM
MCF-10A cells; [3]
  IC50: 76 nM
MCF-10A cells
  AUC: 0.72
MCF-7 cells; Homo sapiens, MCF7
  IC50: 340 nM
MCF-7 cells
  AUC: 0.87
  GRmax: −0.29
BT-549 cells
  AUC: 0.75
  GRmax: 0.40
BT-549 cells; [3]
  IC50: 140 nM
HCC1806 cells
  AUC: 0.75
  GRmax: 0.39
HCC1806 cells; [2]
  IC50: 3000 nM
HCC1806 cells; [3]
  IC50: 3300 nM
MDA-MB-436 cells; [3]
  IC50: 160 nM
MDA-MB-436 cells
  AUC: 0.88
  GRmax: −0.78
MDA-MB-468 cells; [2]
  IC50: 240 nM
MDA-MB-468 cells; [3]
  IC50: 55 nM
MDA-MB-468 cells
  AUC: 0.67
CAL-148 cells
  AUC: 0.83
  GRmax: 0.18
CAL-148 cells; [3]
  IC50: 270 nM
[1]; Homo sapiens, 24 h, read-out: GR50 (mean ± SD)
  IC50: 680 ± 1000 nM
[1]; TNBC cell lines, 24 h
  area under the dose response curve (AUC), mean ± SD: 0.76 ± 0.10

## CC(C)C[C@H](NC(=O)CNC(=O)c1cc(Cl)ccc1Cl)B1OC(=O)C(CC(=O)O)(CC(=O)O)O1 [MLN 9708, MLN-9708]
HCC70 cells
  AUC: 0.82
  GRmax: −0.34
HCC70 cells; [2]
  IC50: 4800 nM
HCC70 cells; [3]
  IC50: 1200 nM
MCF-10A cells; [2]
  IC50: 380 nM
MCF-10A cells; [3]
  IC50: 70 nM
MCF-10A cells
  AUC: 0.72
MCF-7 cells; Homo sapiens, MCF7
  IC50: 270 nM
MCF-7 cells
  AUC: 0.87
  GRmax: −0.48
BT-549 cells
  AUC: 0.80
  GRmax: 0.43
BT-549 cells; [3]
  IC50: 840 nM
HCC1806 cells
  AUC: 0.79
  GRmax: 0.47
HCC1806 cells; [3]
  IC50: 4300 nM
MDA-MB-436 cells; [3]
  IC50: 110 nM
MDA-MB-436 cells
  AUC: 0.86
  GRmax: −0.82
MDA-MB-468 cells; [2]
  IC50: 800 nM
MDA-MB-468 cells; [3]
  IC50: 100 nM
MDA-MB-468 cells
  AUC: 0.72
CAL-148 cells
  AUC: 0.88
  GRmax: 0.40
CAL-148 cells; [3]
  IC50: 500 nM
[1]; TNBC cell lines, 24 h
  area under the dose response curve (AUC), mean ± SD: 0.79 ± 0.10

## [NH2][Pt]1([NH2])[O]CC(=O)[O]1 [Nedaplatin]
HCC70 cells; [4]
  IC50: 46 nM
HCC70 cells
  AUC: 0.50
  GRmax: −0.83
HCC70 cells; [5]
  IC50: 300 nM
MCF-10A cells; [4]
  IC50: 75 nM
MCF-10A cells
  AUC: 0.57
MCF-10A cells; [6]
  GRmax: −0.40
MCF-10A cells; [5]
  IC50: 74 nM
MCF-7 cells
  AUC: 0.82
  GRmax: −0.57
  IC50: 75 nM
BT-549 cells; [4]
  IC50: 150 nM
BT-549 cells
  AUC: 0.66
  GRmax: −0.02
BT-549 cells; [5]
  IC50: 81 nM
HCC1806 cells; [4]
  IC50: 150 nM
HCC1806 cells
  AUC: 0.66
  GRmax: −0.38
HCC1806 cells; [5]
  IC50: 120 nM
MDA-MB-436 cells; [4]
  IC50: 230 nM
MDA-MB-436 cells
  AUC: 0.76
  GRmax: 0.22
MDA-MB-436 cells; [5]
  IC50: 130 nM
MDA-MB-468 cells; [4]
  IC50: 67 nM
MDA-MB-468 cells
  AUC: 0.61
MDA-MB-468 cells; [6]
  GRmax: −0.38
CAL-148 cells; [4]
  IC50: 320 nM
CAL-148 cells
  AUC: 0.78
  GRmax: −0.93
CAL-148 cells; [5]
  IC50: 210 nM
[1]; TNBC cell lines, 24 h
  area under the dose response curve (AUC), mean ± SD: 0.68 ± 0.10
[1]; TNBC cell lines, by GRmax
  cytotoxic effect at the highest dose: cytotoxic
